In publication PMC5975898, “Cationic porphyrins are tunable gatekeepers of the 20S proteasome” (Chemical Science, 2015):
Read-outs that look alike come from different tables or passages of the source.

Key:
[1] = molecular target: T1, human 20S proteasome ChT-L activity; assay: 20S proteasome ChT-L activity inhibition assay (Suc-LLVY-AMC); format: biochemical
T1 construct: purchased Boston Biochem
Procedure: (§1) Purified human 20S proteasome and the fluorogenic substrates Suc-LLVY-AMC, Z-Leu-Leu-Glu-AMC, and Ac-Arg-Leu-Arg-AMC used to test the ChT-L, PGPH-L, and T-L activity, respectively, were purchased from Boston Biochem (Cambridge, MA, USA).
(§2) Proteasome activity assays were performed in vitro by mixing 20S proteasome (2 nM) with 100 μM of the proper fluorogenic peptide in the assay buffer (i.e., 25 mM HEPES, 0.5 mM EDTA, pH 7.6) in a 384 multiwell black plate. […] A minimum of three replicates were performed for each data point. Data are expressed as normalized percentages of residual activity considering the slope of the control (fluorogenic peptide/proteasome in the absence of inhibitors) as 100% of proteasome activity. Dose–response plots of the residual proteasome activity in the presence of increasing concentration of inhibitor provides a quantitative estimate of its potency. […] The estimation of the IC50 is based on a nonlinear fit with the equation:2 [drawing 2]
(§3) The IC50 values and their standard errors were deduced from the fitting. […] The resulting catalytic parameter are Km, corresponding to the apparent affinity constant (or Michaelis–Menten constant) of substrate for the free enzyme (to form the ES complex), and kcat, corresponding to the velocity of the rate-limiting step during the enzymatic activity. […] The mechanism of inhibition of the 20S proteasome ChT-L activity by the inhibitors was analyzed by modified double-reciprocal plot, as from the following equations for the different inhibitory mechanisms:4a [drawing 4]

[2] = molecular target: T2, human 20S proteasome T-L activity; assay: 20S proteasome T-L activity inhibition assay (Ac-Arg-Leu-Arg-AMC); format: biochemical
T2 construct: purchased Boston Biochem
Procedure: as §1, §2, §3

[3] = molecular target: T3, human 20S proteasome PGPH-L activity; assay: 20S proteasome PGPH-L activity inhibition assay (Z-Leu-Leu-Glu-AMC); format: biochemical
T3 construct: purchased Boston Biochem
Procedure: as §1, §2, §3

[4] = tested on: T1, human 20S proteasome ChT-L activity; assay: Steady-state enzyme kinetics of ChT-L inhibition (Lineweaver-Burk plot); format: biochemical
From the text: Analysis of enzyme kinetics may provide valuable insights in the understanding of inhibition mechanisms. To this aim, we have addressed the inhibition mechanism of the title compound H2T4 by determining the ChT-L activity of the CP at different concentrations of substrate and inhibitor. Since H2T4 inhibits all the three proteolytic functions of the CP with a similar potency, one can assume that the inhibition mechanism is similar for all enzymatic activities.
Fig. 6 Double reciprocal Lineweaver–Burk plot of substrate enzymatic 20S processing in the absence of inhibitor (○) and in the presence of 0.5 μM (×), 1 μM (+), 3 μM (*), 10 μM (⊗) and 20 μM inhibitor (⊕) for various concentrations of the substrate Suc-LLVY-AMC (from 6 to 100 μM).
The IC50 values and their standard errors were deduced from the fitting. Data relative to CP activities at different substrate/inhibitor concentrations have been analyzed by a double reciprocal Lineweaver–Burk plot, according to the following equation:3 [drawing 3] where [E0] is the enzyme concentration, ν is the observed velocity (expressed as moles of substrate cleaved per time interval unit) and [S] is the substrate concentration. […] The mechanism of inhibition of the 20S proteasome ChT-L activity by the inhibitors was analyzed by modified double-reciprocal plot, as from the following equations for the different inhibitory mechanisms:4a [drawing 4] […]

[5] = tested on: T1, human 20S proteasome ChT-L activity; assay: Pre-steady-state kinetics of ChT-L inhibition (time course of fluorescent product, Runge-Kutta simulation); format: biochemical; conditions: 2 nM 20S, 100 μM Suc-LLVY-AMC; constrained to KI = k–I/k+I
Procedure: The kinetic parameters of H2T4 binding to the CP have also been determined as a function of time (as described in Experimental). Fig. 7 reports the time evolution of the fluorescent product obtained by mixing at t = 0 both the substrate (100 μM final concentration) and H2T4 at different concentrations, as reported in the figure legend; the fluorescent signal was transformed into molar concentrations of fluorescent product through a calibration curve resulting from the complete processing of known concentration of substrate. […]
The interaction of H2T4 with 20S proteasome has been also investigated from the pre-steady-state kinetic standpoint. Briefly, these assays were performed without incubation time, by direct addition of different concentrations of H2T4 in samples where the Ch-L activity was already being monitored. The extent and the rate of inhibition were determined by following the time-dependent fluorescent signal of the cleaved substrate for 25 additional minutes. Data have been analyzed according to a second-order Runge–Kutta simulation procedure based on a simple competitive inhibition mechanism, such as in Scheme 1.
The time evolution of each species reported in Scheme 1 was calculated at discrete time intervals dt. […]

20S proteasome = tested on: T4, 20S proteasome; assay: Stopped-flow UV spectroscopy of H2T4 binding to 20S proteasome; parameters: species or system human; conditions: 421 nm, 37 °C
T4 construct: purchased Boston Biochem
From the text: In order to find a closer correlation between experimental observations and molecular modeling we have carried out a kinetic investigation of the interaction between H2T4 and 20S proteasome by stopped-flow. […] Data have been analyzed according to the following equation1 [drawing 1] where ΔODobs is the observed optical density change at a given time, r is the total number of exponentials during the reaction time course, ΔODi is the optical density change corresponding to the exponential i, ki is the rate constant associated to the exponential i, t is the time.
Fig. 11 Optical density changes at 421 nm for the mixing at 37 °C of 1 nM 20S proteasome with different concentrations of H2T4, namely 1 μM (curve a), 2 μM (curve b) and 5 μM (curve c). Continuous lines correspond to the non-linear least-squares fitting of data with two exponentials according to eqn (1), employing parameters reported in Table 1.
However, it is important to outline that kinetics reported in Fig. 11 are characterized by a multiphasic pattern with different patterns of concentration dependence of the rate constants. […] Therefore, on the basis of molecular modeling studies, these kinetic data can be accounted for by assuming that there is a first faster interaction with the N-terminal tails of the α subunits, characterized by k1, likely corresponding to the first encountering of the porphyrin with the α-subunits plane in a perpendicular geometry (Fig. 10A). […] The values ≈0 for the dissociation rate constants (Table 1) simply means that the rate is very slow and the interaction is very strong.

[6] = read-out: IC50 ChT-L (Figure S1), figure inset, semi-log plot of residual CP activity
[7] = read-out: IC50 best-fit value, ChT-L activity (Table S1), nonlinear fit of dose-response plot
[8] = read-out: IC50 T-L (Figure S1), figure inset, semi-log plot of residual CP activity
[9] = read-out: IC50 best-fit value, T-L activity (Table S1), nonlinear fit of dose-response plot
[10] = read-out: IC50 PGPH-L (Figure S1), figure inset, semi-log plot of residual CP activity
[11] = read-out: IC50 best-fit value, PGPH-L activity (Table S1), nonlinear fit of dose-response plot

| SMILES | IC50 [1, 6] [nM] | IC50 [1, 7] [nM] | IC50 [2, 8] [nM] | IC50 [2, 9] [nM] | IC50 [3, 10] [nM] | IC50 [3, 11] [nM] | inhibition mechanism ([4]; Lineweaver-Burk plot) | Ki ([4]; read-out: inhibitor affinity constant KI, Suc-LLVY-AMC 6 to 100 μM, fit with eqn (4a)) [nM] | k+I [5] | k–I [5] | off k1 (20S proteasome; 1 nM 20S, 1-5 μM H2T4) | off k2 (20S proteasome; 1 nM 20S, 1-5 μM H2T4) | on k1 (20S proteasome; 1 nM 20S, 1-5 μM H2T4) | on k2 (20S proteasome; 1 nM 20S, 1-5 μM H2T4) | k3 (20S proteasome; rate independent of porphyrin concentration) |
| --- | --- | --- | --- | --- | --- | --- | --- | --- | --- | --- | --- | --- | --- | --- | --- |
| C[n+]1ccc(-c2c3nc(c(-c4cc[n+](C)cc4)c4ccc([nH]4)c(-c4cc[n+](C)cc4)c4nc(c(-c5cc[n+](C)cc5)c5ccc2[nH]5)C=C4)C=C3)cc1 [H2T4, meso-tetrakis(4-N-methylpyridyl)-porphyrin] | 470 | 469 | 460 | 466 | 300 | 301 | competitive mechanism | 360 | 1.3 × 10^4 M^–1 s^–1 | 4.7 × 10^–3 s^–1 | ∼0 s^–1 | ∼0 s^–1 | 5.65 (±0.74) × 10^4 M^–1 s^–1 | 1.28 (±0.31) × 10^4 M^–1 s^–1 | 3.23 (±0.81) × 10^–3 s^–1 |
| C[n+]1cccc(-c2c3nc(c(-c4ccc[n+](C)c4)c4ccc([nH]4)c(-c4ccc[n+](C)c4)c4nc(c(-c5ccc[n+](C)c5)c5ccc2[nH]5)C=C4)C=C3)c1 [meta-H2T4, meso-tetra(3-N-metil-pyridyl) porphyrin] | 930 | 931 | 1160 | 1160 | 210 | 211 | – | – | – | – | – | – | – | – | – |
